Laboratory results published in PMC10895674, “First-in-Class Dual EZH2-HSP90 Inhibitor Eliciting Striking Antiglioblastoma Activity In Vitro and In Vivo” (Journal of Medicinal Chemistry, 2024).

Legend:
[1] = system: TMZ-resistant cells (Pt3R); test: Cell viability CCK8 assay; format: cell-based, human; details: 72 h; for IC50: Homo sapiens, CCK8, read-out: IC50, cell growth inhibitory effects
From the text: The CCK8 reagent was purchased from TargetMOI (Wellesley Hills, MA) and used according to the manufacturer’s instruction.

EZH2 = EZH2 (Homo sapiens, UniProt Q15910); test: EZH2 inhibition assay (Reaction Biology Corp.); format: biochemical; details: for IC50: 10-dose IC50 mode, 3-fold serial dilution starting at 10 μM, single experiment
Method: The EZH2 inhibitory ability of the synthesized adduct was assessed by Reaction Biology Corporation Malvern, PA. (http://www.reactionbiology.com).

HSP90a = HSP90a (Homo sapiens, UniProt P07900); test: In vitro Hsp90 assay (Reaction Biology Corp.); format: biochemical; details: for IC50: 10-dose IC50 mode, 3-fold serial dilution starting at 10 μM, single experiment, '-' read as no inhibition
Method: The HSP90 inhibitory activity of the synthesized adduct was assessed by Reaction Biology Corporation Malvern, PA. (http://www.reactionbiology.com).

Pt#3-R-induced tumor = test: In vivo anti-GBM efficacy, Pt3R xenograft; details: intraperitoneally twice per week; TAZ 10 or 20 mg/kg; STA+TAZ 5+5, 10+10, 15+15 mg/kg
Method: In vivo anti-GBM efficacy of compound 7 was also evaluated in this study. For the in vivo study, experimental NOD.CB17-Prkdc^scid/NCrCrl mice (8-week-old) were used and Pt3R cells (1 × 10^6) in 50 μL Dulbecco’s modified Eagle’s medium (DMEM) were injected into the back of mice. After 10 days, the tumor was detectable. […] In a nutshell, the outcome of the in vivo study ascertains that the remarkable in vitro anti-GBM activity profile of dual inhibitor 7 was translated to the in vivo potential.
Animal experiments were approved by the institutional animal care and use committee of Taipei Medical University (IACUC: LAC2022-0288). Male NOD.CB17-Prkdc^scid/NCrCrl mice (8-week-old) were purchased from BioLASCO Taiwan Co., Ltd. (Taipei, Taiwan). Pt3R cells (1 × 10^6) in 50 μL of DMEM were injected into the back of mice. Experimental mice were grouped as follows (Figure 11): DMSO (n = 5), C7–10 mg/kg (n = 4), C7–20 mg/kg (n = 6), TAZ-10 mg/kg (n = 6), TAZ-20 mg/kg (n = 8), STA-5+TAZ-5 mg/kg (n = 7), STA-10+TAZ-10 mg/kg (n = 7) and STA-15+TAZ-15 mg/kg (n = 7). After 10 days, the tumor was touchable. Mice were injected intraperitoneally with DMSO (the control group) or compounds twice per week.

Sequence of EZH2 (Q15910 whole entry): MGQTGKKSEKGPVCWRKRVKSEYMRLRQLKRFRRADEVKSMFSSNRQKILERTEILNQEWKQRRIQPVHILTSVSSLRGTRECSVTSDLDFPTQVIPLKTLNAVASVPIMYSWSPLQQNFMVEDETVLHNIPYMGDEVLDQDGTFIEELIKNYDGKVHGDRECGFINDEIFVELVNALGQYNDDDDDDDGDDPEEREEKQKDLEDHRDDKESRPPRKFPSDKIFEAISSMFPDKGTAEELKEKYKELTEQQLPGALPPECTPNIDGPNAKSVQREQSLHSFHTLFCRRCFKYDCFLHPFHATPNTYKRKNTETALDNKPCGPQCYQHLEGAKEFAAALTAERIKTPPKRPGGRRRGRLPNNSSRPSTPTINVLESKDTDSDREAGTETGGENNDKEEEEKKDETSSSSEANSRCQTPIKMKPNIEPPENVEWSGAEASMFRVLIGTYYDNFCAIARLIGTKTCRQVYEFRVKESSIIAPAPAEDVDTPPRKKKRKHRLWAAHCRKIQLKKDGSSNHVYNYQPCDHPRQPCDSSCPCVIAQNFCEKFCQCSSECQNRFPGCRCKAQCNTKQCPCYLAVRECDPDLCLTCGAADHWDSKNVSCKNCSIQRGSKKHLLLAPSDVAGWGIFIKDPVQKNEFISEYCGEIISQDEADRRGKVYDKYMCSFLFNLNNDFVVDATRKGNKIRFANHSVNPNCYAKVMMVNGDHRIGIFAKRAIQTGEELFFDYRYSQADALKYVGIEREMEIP
Sequence of EZH2 (O75530 whole entry partner): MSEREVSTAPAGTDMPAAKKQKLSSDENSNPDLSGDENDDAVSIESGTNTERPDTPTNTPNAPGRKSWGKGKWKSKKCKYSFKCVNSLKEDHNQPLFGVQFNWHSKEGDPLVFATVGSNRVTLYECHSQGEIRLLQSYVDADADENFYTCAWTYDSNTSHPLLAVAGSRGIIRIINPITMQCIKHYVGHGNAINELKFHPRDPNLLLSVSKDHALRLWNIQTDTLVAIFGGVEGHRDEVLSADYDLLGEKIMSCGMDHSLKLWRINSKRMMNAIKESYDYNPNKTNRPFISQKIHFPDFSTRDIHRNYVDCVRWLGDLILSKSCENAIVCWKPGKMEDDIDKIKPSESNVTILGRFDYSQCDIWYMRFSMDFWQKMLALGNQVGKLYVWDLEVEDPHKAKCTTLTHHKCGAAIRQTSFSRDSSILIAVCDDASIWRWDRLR
Sequence of EZH2 (Q15022 whole entry partner): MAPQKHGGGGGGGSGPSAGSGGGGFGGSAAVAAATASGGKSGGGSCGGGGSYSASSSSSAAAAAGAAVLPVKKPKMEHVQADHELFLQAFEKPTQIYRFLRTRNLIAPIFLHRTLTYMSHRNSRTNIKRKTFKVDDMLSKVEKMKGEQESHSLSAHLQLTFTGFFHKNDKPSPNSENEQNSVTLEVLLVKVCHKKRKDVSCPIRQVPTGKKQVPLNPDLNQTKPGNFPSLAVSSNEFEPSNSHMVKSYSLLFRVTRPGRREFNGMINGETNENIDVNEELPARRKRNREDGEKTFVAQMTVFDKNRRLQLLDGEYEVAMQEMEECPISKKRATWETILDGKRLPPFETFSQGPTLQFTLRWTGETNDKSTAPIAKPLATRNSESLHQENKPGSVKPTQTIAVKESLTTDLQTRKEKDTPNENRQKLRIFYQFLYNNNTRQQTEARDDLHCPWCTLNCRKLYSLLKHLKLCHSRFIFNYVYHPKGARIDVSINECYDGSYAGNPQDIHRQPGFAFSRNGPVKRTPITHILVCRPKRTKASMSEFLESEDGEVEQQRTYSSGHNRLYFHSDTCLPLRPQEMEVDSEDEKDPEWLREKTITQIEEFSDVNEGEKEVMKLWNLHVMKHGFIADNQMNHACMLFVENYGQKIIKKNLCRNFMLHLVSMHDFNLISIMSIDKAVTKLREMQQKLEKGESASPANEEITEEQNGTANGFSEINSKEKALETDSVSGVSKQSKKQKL
Sequence of EZH2 (Q09028 whole entry partner): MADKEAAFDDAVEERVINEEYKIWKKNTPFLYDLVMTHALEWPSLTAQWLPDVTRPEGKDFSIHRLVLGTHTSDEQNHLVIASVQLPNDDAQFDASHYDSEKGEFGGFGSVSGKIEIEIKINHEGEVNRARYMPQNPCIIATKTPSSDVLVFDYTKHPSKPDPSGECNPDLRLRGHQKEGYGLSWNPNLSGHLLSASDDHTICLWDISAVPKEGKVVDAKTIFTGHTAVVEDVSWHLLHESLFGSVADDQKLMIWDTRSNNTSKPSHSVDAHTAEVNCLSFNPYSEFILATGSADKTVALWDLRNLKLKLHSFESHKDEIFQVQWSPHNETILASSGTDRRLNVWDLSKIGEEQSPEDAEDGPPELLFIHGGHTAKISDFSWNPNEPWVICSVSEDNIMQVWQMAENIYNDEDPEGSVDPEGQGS
Sequence of EZH2 (Q6ZN18 whole entry partner): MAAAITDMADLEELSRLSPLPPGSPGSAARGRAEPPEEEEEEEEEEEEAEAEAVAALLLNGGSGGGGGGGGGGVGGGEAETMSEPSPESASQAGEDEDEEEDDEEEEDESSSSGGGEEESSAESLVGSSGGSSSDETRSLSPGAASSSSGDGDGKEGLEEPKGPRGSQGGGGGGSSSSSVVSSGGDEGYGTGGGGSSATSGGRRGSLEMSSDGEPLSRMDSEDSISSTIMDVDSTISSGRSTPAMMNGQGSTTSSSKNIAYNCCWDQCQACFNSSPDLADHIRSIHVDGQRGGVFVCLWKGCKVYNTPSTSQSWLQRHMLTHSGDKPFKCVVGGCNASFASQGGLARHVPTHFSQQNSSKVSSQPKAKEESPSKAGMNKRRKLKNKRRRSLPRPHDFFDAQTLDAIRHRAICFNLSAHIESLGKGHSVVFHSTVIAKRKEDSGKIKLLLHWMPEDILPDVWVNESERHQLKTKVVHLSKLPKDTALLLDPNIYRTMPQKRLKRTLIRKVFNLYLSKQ

| Structure (SMILES) | IC50 (EZH2) [nM] | HSP90 inhibitory potential (in words) (HSP90a) | IC50 (HSP90a) [nM] | fold more potent in inhibiting EZH2 than counterpart 1 (EZH2; compound 2 vs 1) [fold] | cell growth inhibitory effects (in words) [1] | tumor growth (Pt#3-R-induced tumor) | IC50 [1] [µM] |
| --- | --- | --- | --- | --- | --- | --- | --- |
| CCN(c1cc(-c2ccc(CN3CCOCC3)cc2)cc(C(=O)NCc2c(C)cc(C)[nH]c2=O)c1C)C1CCOCC1 [Tazemetostat, reference compound] | – | – | – | – | unable to exert cell growth inhibitory effects | failed to suppress tumor growth | – |
| CCCN(C(=O)c1cc(C(C)C)c(O)cc1O)c1cccc(-c2cc(C(=O)NCc3c(C)cc(C)[nH]c3=O)c(C)c(N(CC)C3CCOCC3)c2)c1 [Compound 9, 3′-(2,4-Dihydroxy-5-isopropyl-N-propylbenzamido)-N-((4,6-dimethyl-2-oxo-1,2-dihydropyridin-3-yl)methyl)-5-(ethyl(tetrahydro-2H-pyran-4-yl)amino)-4-methyl-[1,1′-biphenyl]-3-carboxamide] | 40.1 | – | 9330 | – | unable to exert cell growth inhibitory effects | – | – |
| CCN(C(=O)c1cc(C(C)C)c(O)cc1O)c1cccc(-c2cc(C(=O)NCc3c(C)cc(C)[nH]c3=O)c(C)c(N(CC)C3CCOCC3)c2)c1 [Compound 8, N-((4,6-Dimethyl-2-oxo-1,2-dihydropyridin-3-yl)methyl)-5-(ethyl(tetrahydro-2H-pyran-4-yl)amino)-3′-(N-ethyl-2,4-dihydroxy-5-isopropylbenzamido)-4-methyl-[1,1′-biphenyl]-3-carboxamide] | 36.6 | – | 63.6 | – | – | – | 10.8 ± 1 |
| CCN(c1cc(-c2ccc(N(C)C(=O)c3cc(C(C)C)c(O)cc3O)cc2)cc(C(=O)NCc2c(C)cc(C)[nH]c2=O)c1C)C1CCOCC1 [Compound 3, 4′-(2,4-Dihydroxy-5-isopropyl-N-methylbenzamido)-N-((4,6-dimethyl-2-oxo-1,2-dihydropyridin-3-yl)methyl)-5-(ethyl(tetrahydro-2H-pyran-4-yl)amino)-4-methyl-[1,1′-biphenyl]-3-carboxamide] | 7.21 | – | 343 | – | – | – | 27.4 ± 1.58 |
| CCN(c1cc(-c2cccc(NC(=O)c3cc(C(C)C)c(O)cc3O)c2)cc(C(=O)NCc2c(C)cc(C)[nH]c2=O)c1C)C1CCOCC1 [Compound 2, 3′-(2,4-Fihydroxy-5-isopropylbenzamido)-N-((4,6-dimethyl-2-oxo-1,2-dihydropyridin-3-yl)methyl)-5-(ethyl(tetrahydro-2H-pyran-4-yl)amino)-4-methyl-[1,1′-biphenyl]-3-carboxamide] | 2.06 | devoid of HSP90 inhibitory potential | – | 3 | unable to exert cell growth inhibitory effects | – | – |

More lines, main results first:

| IC50 (EZH2) [nM] | HSP90 inhibitory potential (in words) (HSP90a) | IC50 (HSP90a) [nM] | fold more potent in inhibiting EZH2 than counterpart 1 (EZH2; compound 2 vs 1) [fold] | Structure (SMILES) | cell growth inhibitory effects (in words) [1] | tumor growth (Pt#3-R-induced tumor) | IC50 [1] [µM] |
| --- | --- | --- | --- | --- | --- | --- | --- |
| 6.14 | devoid of HSP90 inhibitory potential | – | – | CCN(c1cc(-c2ccc(NC(=O)c3cc(C(C)C)c(O)cc3O)cc2)cc(C(=O)NCc2c(C)cc(C)[nH]c2=O)c1C)C1CCOCC1 [Compound 1, 4′-(2,4-Fihydroxy-5-isopropylbenzamido)-N-((4,6-dimethyl-2-oxo-1,2-dihydropyridin-3-yl)methyl)-5-(ethyl(tetrahydro-2H-pyran-4-yl)amino)-4-methyl-[1,1′-biphenyl]-3-carboxamide] | unable to exert cell growth inhibitory effects | – | – |
| 641 | – | 2840 | – | CCN(c1cc(-c2cccc(N(Cc3ccccc3)C(=O)c3cc(C(C)C)c(O)cc3O)c2)cc(C(=O)NCc2c(C)cc(C)[nH]c2=O)c1C)C1CCOCC1 [Compound 10, 3′-(N-Benzyl-2,4-dihydroxy-5-isopropylbenzamido)-N-((4,6-dimethyl-2-oxo-1,2-dihydropyridin-3-yl)methyl)-5-(ethyl(tetrahydro-2H-pyran-4-yl)amino)-4-methyl-[1,1′-biphenyl]-3-carboxamide] | unable to exert cell growth inhibitory effects | – | – |
| 21.8 | – | – | – | CCCN(C(=O)c1cc(C(C)C)c(O)cc1O)c1ccc(-c2cc(C(=O)NCc3c(C)cc(C)[nH]c3=O)c(C)c(N(CC)C3CCOCC3)c2)cc1 [Compound 5, 4′-(2,4-Dihydroxy-5-isopropyl-N-propylbenzamido)-N-((4,6-dimethyl-2-oxo-1,2-dihydropyridin-3-yl)methyl)-5-(ethyl(tetrahydro-2H-pyran-4-yl)amino)-4-methyl-[1,1′-biphenyl]-3-carboxamide] | – | – | – |
| 11.7 | – | > 10000 | – | CCN(c1cc(-c2ccc(N(Cc3ccccc3)C(=O)c3cc(C(C)C)c(O)cc3O)cc2)cc(C(=O)NCc2c(C)cc(C)[nH]c2=O)c1C)C1CCOCC1 [Compound 6, 4′-(N-Benzyl-2,4-dihydroxy-5-isopropylbenzamido)-N-((4,6-dimethyl-2-oxo-1,2-dihydropyridin-3-yl)methyl)-5-(ethyl(tetrahydro-2H-pyran-4-yl)amino)-4-methyl-[1,1′-biphenyl]-3-carboxamide] | – | – | – |
| 7.35 | – | 823 | – | CCN(C(=O)c1cc(C(C)C)c(O)cc1O)c1ccc(-c2cc(C(=O)NCc3c(C)cc(C)[nH]c3=O)c(C)c(N(CC)C3CCOCC3)c2)cc1 [Compound 4, N-((4,6-Dimethyl-2-oxo-1,2-dihydropyridin-3-yl)methyl)-5-(ethyl(tetrahydro-2H-pyran-4-yl)amino)-4′-(N-ethyl-2,4-dihydroxy-5-isopropylbenzamido)-4-methyl-[1,1′-biphenyl]-3-carboxamide] | – | – | – |
